The test system of data set [1] is C57bl/6 obese (ob/ob) mice. Kind of data set: Obese Mice, Oral Glucose Tolerance Test. It counts as in vivo. As to conditions: 8 days on diet, oral glucose load 3 g/kg, vs control groups; for inhibition in vivo at 100 µmol/kg: level in diet 100 μmol kg^-1 of diet; for inhibition in vivo at 300 µmol/kg: level in diet 300 μmol kg^-1 of diet; for inhibition in vivo at 30 µmol/kg: level in diet 30 μmol kg^-1 of diet. The procedure: Obese Mice, Oral Glucose Tolerance Test
C57bl/6 obese (ob/ob) mice were fed on powdered oxoid diet. After at least one week, the mice continued on a powdered oxoid diet or were fed powdered oxoid diet containing the test compound. After 8 days on the supplemented diet all of the mice were fasted for 5 hours prior to receiving an oral load of glucose (3 g/kg). Blood samples for glucose analysis were taken 0, 45, 90 and 135 minutes after glucose administration and the results appear below as the percentage reduction in area under the blood glucose curve where test compound treated groups are compared with the control groups. 7 mice were used for each treatment.

In data set [2] the test system is spontaneously hypertensive rats. The data set can be described thus: Anti-Hypertensive Activity, blood pressure in spontaneously hypertensive rats. It counts as in vivo. The protocol:
Anti-Hypertensive Activity
Eight month old female, spontaneously hypertensive rats were given test compound once each day for 15 days. Prior to the experiment and on days 8 and 15, the rats were fasted overnight from 5.00 pm and blood pressure was recorded the following morning, immediately prior to dosing and again 2 h later. Food was returned after the 2 h blood pressure reading.
The results below were obtained using the compound of Example 3 as the test compound.

The mark [3] stands for this setting: Mus musculus, 192 h, read-out: % REDUCTION IN AREA UNDER BLOOD GLUCOSE CURVE.

For orientation: melting point means the temperature of the solid-liquid transition.

As to “5-(4-[2-(N-Methyl-N-(2-benzoxazolyl)amino)ethoxy]benzyl)-2,4-thiazolidinedione hemihydrate [Example 3]”, in data set [1] (level in diet 10 μmol kg^-1 of diet), the “% REDUCTION IN AREA UNDER BLOOD GLUCOSE CURVE” value is reported as 39%. Also, the Blood pressure is 210 ± 13 mm Hg in data set [2] (10 μmole/kg once each day, Day 0 (prior to the experiment), 0 hours); 191 ± 6 mm Hg in data set [2] (10 μmole/kg once each day, Day 8, 0 hours (immediately prior to dosing)); 185 ± 12 mm Hg in data set [2] (10 μmole/kg once each day, Day 8, 2 hours after dosing); 198 ± 17 mm Hg in data set [2] (10 μmole/kg once each day, Day 15, 0 hours (immediately prior to dosing)); 185 ± 5 mm Hg in data set [2] (10 μmole/kg once each day, Day 15, 2 hours after dosing); 210 ± 13 mm Hg in data set [2] (30 μmole/kg once each day, Day 0 (prior to the experiment), 0 hours). Further, the Blood pressure was determined as 181 ± 11 mm Hg in data set [2] (30 μmole/kg once each day, Day 8, 0 hours (immediately prior to dosing)); 174 ± 15 mm Hg in data set [2] (30 μmole/kg once each day, Day 8, 2 hours after dosing); 178 ± 18 mm Hg in data set [2] (30 μmole/kg once each day, Day 15, 0 hours (immediately prior to dosing)); 170 ± 13 mm Hg in data set [2] (30 μmole/kg once each day, Day 15, 2 hours after dosing).
As to `CN(CCOc1ccc(CC2SC(=O)NC2=O)cc1)c1nc2ccccc2s1` (centres unmarked) [Example 1, 5-(4-[2-(N-Methyl-N-(2-benzothiazolyl)amino)ethoxy]benzyl)-2,4-thiazolidinedione], the inhibition in vivo at 100 µmol/kg in data set [1] (setting [3]) worked out at 51%.
In the case of `CN(CCOc1ccc(/C=C2\SC(=O)NC2=O)cc1)c1nc2ccccc2s1` [Example 2, 5-(4-[2-(N-Methyl-N-(2-benzothiazolyl)amino)ethoxy]benzylidene)-2,4-thiazolidinedione], the inhibition in vivo at 300 µmol/kg in data set [1] (setting [3]) worked out at 30%.
The same measure, in the same setting: in the case of `CN(CCOc1ccc(/C=C2\SC(=O)NC2=O)cc1)c1nc2ccccc2o1` [Example 4, 5-(4-[2-(N-Methyl-N-(2-benzoxazolyl)amino)ethoxy]benzylidene)-2,4-thiazolidinedione] it was 30%.
Regarding `CN(CCOc1ccc(CC2SC(=O)NC2=O)cc1)c1ncccn1` (centres unmarked) [Example 5, 5-(4-[2-(N-Methyl-N-(2-pyrimidinyl)amino)ethoxy]benzyl)-2,4-thiazolidinedione], the inhibition in vivo at 100 µmol/kg in data set [1] (setting [3]) turned out to be 40%.
For the molecule `Cc1nc(N(C)CCOc2ccc(CC3SC(=O)NC3=O)cc2)sc1C` (centres unmarked) [Example 7], the inhibition in vivo at 50 µmol/kg in data set [1] (Mus musculus, 192 h, level in diet 50 μmol kg^-1 of diet, read-out: % REDUCTION IN AREA UNDER BLOOD GLUCOSE CURVE) came out at 47%.
In turn, `Cc1nc(N(C)CCOc2ccc(/C=C3\SC(=O)NC3=O)cc2)sc1C` [Example 8, 5-(4-[2-(N-Methyl-N-[2-(4,5-dimethylthiazolyl)]amino)ethoxy]benzylidene)-2,4-thiazolidinedione] had a melting point of 175 °C.
Regarding `CN(CCOc1ccc(CC2SC(=O)NC2=O)cc1)c1nccs1` (centres unmarked) [Example 9, 5-(4-[2-(N-Methyl-N-(2-thiazolyl)amino)ethoxy]benzyl)-2,4-thiazolidinedione], the melting point came out at 186 °C. Also, the inhibition in vivo at 100 µmol/kg in data set [1] (setting [3]) was 58%.
In the same order, the values of `CN(CCOc1ccc(CC2SC(=O)NC2=O)cc1)c1nc(-c2ccccc2)cs1` (centres unmarked) [Example 11, 5-[4-(2-(N-Methyl-N-(2-(4-phenylthiazolyl))amino)ethoxy)benzyl]-2,4-thiazolidinedione] are 62 to 65 °C and 34%.
In turn, `CN(CCOc1ccc(/C=C2\SC(=O)NC2=O)cc1)c1nc(-c2ccccc2)cs1` [Example 12, 5-(4-[2-(N-Methyl-N-(2-(4-phenylthiazolyl))amino)ethoxy]benzylidene)-2,4-thiazolidinedione] came in with a melting point of 134 °C.
Consider `Cc1sc(N(C)CCOc2ccc(CC3SC(=O)NC3=O)cc2)nc1-c1ccccc1` (centres unmarked) [Example 13, 5-(4-[2-(N-Methyl-N-[2-(4-phenyl-5-methylthiazolyl)]amino)ethoxy]benzyl)-2,4-thiazolidinedione], for which the melting point lay in the range of 60 to 62 °C. Besides, the inhibition in vivo at 100 µmol/kg in data set [1] (setting [3]) turned out to be 37%.
The corresponding values for `Cc1nc(N(C)CCOc2ccc(CC3SC(=O)NC3=O)cc2)sc1-c1ccccc1` (centres unmarked) [Example 15, 5-(4-[2-(N-Methyl-N-[2-(4-methyl-5-phenylthiazolyl)]amino)ethoxy]benzyl)-2,4-thiazolidinedione] are 174 °C and 39%.
With `Cc1csc(N(C)CCOc2ccc(CC3SC(=O)NC3=O)cc2)n1` (centres unmarked) [Example 17, 5-(4-[2-(N-Methyl-N-[2-(4-methylthiazolyl)]amino)ethoxy]benzyl)-2,4-thiazolidinedione], the inhibition in vivo at 100 µmol/kg in data set [1] (setting [3]) is 34%.
The molecule `CN(CCOc1ccc(CC2SC(=O)NC2=O)cc1)c1ncc(-c2ccccc2)o1` (centres unmarked) [Example 19, 5-[4-(2-(N-Methyl-N-[2-(5-phenyloxazolyl)]amino)ethoxy)benzyl]-2,4-thiazolidinedione] came in with a melting point of 200 °C. The inhibition in vivo at 30 µmol/kg in data set [1] (setting [3]) is 22%.
As to `CN(CCOc1ccc(/C=C2\SC(=O)NC2=O)cc1)c1ncc(-c2ccccc2)o1` [Example 20, 5-(4-[2-(N-Methyl-N-[2-(5-phenyloxazolyl)]amino)ethoxy]benzylidene)-2,4-thiazolidinedione], the melting point was found to be 191 °C.
As for `Cc1nc(N(C)CCOc2ccc(CC3SC(=O)NC3=O)cc2)oc1C` (centres unmarked) [Example 21, 5-(4-[2-(N-Methyl-N-[2-(4,5-dimethyloxazolyl)]amino)ethoxy]benzyl)-2,4-thiazolidinedione], in data set [1] (setting [3]), the inhibition in vivo at 30 µmol/kg came out at 33%.
Molecule `O=C1NC(=O)/C(=C/c2ccc(OCCNc3ncccn3)cc2)S1` [Example 24, 5-[4-(2-(2-Pyrimidinylamino)ethoxy)benzylidene]-2,4-thiazolidinedione] had a melting point of 234 °C. Also, in data set [1] (setting [3]), the inhibition in vivo at 30 µmol/kg came to 15%.
Regarding `CC(=O)N(CCOc1ccc(CC2SC(=O)NC2=O)cc1)c1ncccn1` (centres unmarked) [Example 25, 5-(4-[2-(N-Acetyl-N-(2-pyrimidinyl)amino)ethoxy]benzyl)-2,4-thiazolidinedione], the inhibition in vivo at 30 µmol/kg in data set [1] (setting [3]) was determined as 19%.
For `O=C1NC(=O)C(Cc2ccc(OCCN(Cc3ccccc3)c3nc4ccccc4s3)cc2)S1` (centres unmarked) [Example 27, 5-(4-(2-(N-(2-Benzothiazolyl)-N-benzylamino)ethoxy)benzyl)-2,4-thiazolidinedione], the inhibition in vivo at 300 µmol/kg in data set [1] (setting [3]) was found to be 56%.
`CN(CCCOc1ccc(/C=C2\SC(=O)NC2=O)cc1)c1nc2ccccc2o1` [Example 29, 5-(4-[3-(N-Methyl-N-(2-benzoxazolyl)amino)propoxy]benzylidene)-2,4-thiazolidinedione] had a melting point of 202 to 204 °C. Besides, in data set [1] (setting [3]), the inhibition in vivo at 300 µmol/kg worked out at 32%.
`CN(CCOc1ccc(/C=C2\SC(=O)NC2=O)cc1)c1ccccn1` [Example 31, 5-(4-[2-(N-Methyl-N-(2-pyridyl)amino)ethoxy]benzylidene)-2,4-thiazolidinedione] came in with a melting point of 177 to 179 °C.
The same measure, in the same setting: in the case of `CN(CCCCOc1ccc(/C=C2\SC(=O)NC2=O)cc1)c1nc2ccccc2o1` [Example 32, 5-(4-[4-(N-Methyl-N-(2-benzoxazolyl)amino)butoxy]benzylidene)-2 4-thiazolidinedione] it was 168 °C.
In turn, `CN(CCCCOc1ccc(CC2SC(=O)NC2=O)cc1)c1nc2ccccc2o1` (centres unmarked) [Example 33, 5-(4-[4-(N-Methyl-N-(2-benzoxazolyl)amino)butoxy]benzyl)-2,4-thiazolidinedione] registered a melting point of 112 °C. For the same molecule, in data set [1] (setting [3]), the inhibition in vivo at 300 µmol/kg stood at 25%.
`O=C1NC(=O)C(Cc2ccc(OCCNc3nc4ccccc4o3)cc2)S1` (centres unmarked) [Example 35, 5-(4-[2-(N-(2-Benzoxazolyl)amino)ethoxy]benzyl)-2,4-thiazolidinedione] registered a melting point of 202 to 203 °C. Further, in data set [1] (setting [3]), the inhibition in vivo at 100 µmol/kg is 44%.
Take `CC(C)N(CCOc1ccc(CC2SC(=O)NC2=O)cc1)c1nc2ccccc2o1` (centres unmarked) [Example 36, 5-(4-[2-(N-Isopropyl-N-(2-benzoxazolyl)amino)ethoxy]benzyl)-2,4-thiazolidinedione]: the inhibition in vivo at 100 µmol/kg in data set [1] (setting [3]) amounted to 20%.

These data come from US6686475B2, “Compounds” (Beecham Group p.l.c., priority 1988, dated 2004).
